Test results reported in ChEMBL document CHEMBL1201862, “PubChem BioAssay data set” (2004).
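Values below derive from 48-hour exposures of cells grown in 96-well plates, with endpoints linearly interpolated between the two concentrations bracketing the appropriate inhibition level. Here, GI50 denotes the concentration required for 50% inhibition of growth.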 The source made the active and inactive calls. Rule as the data show it: active = GI50 up to about 1.1 µM and inactive = higher.

Legend:
Experiment in all cases: growth of human tumour cells (NCI), 48 h
[1] = tested on: 786-0
[2] = tested on: COLO 205
[3] = tested on: DMS-273
[4] = tested on: HCT-15
[5] = tested on: HT-29
[6] = tested on: Hs-578T
[7] = tested on: IGROV-1
[8] = tested on: KM12
[9] = tested on: M14
[10] = tested on: OVCAR-3
[11] = tested on: SF-268
[12] = tested on: SF-295
[13] = tested on: SF-539
[14] = tested on: SNB-75
[15] = tested on: TK-10
[16] = tested on: U-251
[17] = tested on: UACC-257
[18] = tested on: UACC-62
[19] = tested on: XF498
[20] = tested on: MDA-N

COc1ccc(CC2C(=O)NC(C)C(=O)N(C)C3C(=O)N(C)C(Cc4ccc(O)c(c4)Oc4ccc(cc4)C3O)C(=O)NC(C)C(=O)NC(C)C(=O)N2C)cc1 (stereo not drawn)
GI50 [1]: 0.015 µM (active) | GI50 [2]: 0.0206 µM (active) | GI50 [3]: 0.0123 µM (active) | GI50 [4]: 0.658 µM | GI50 [5]: 0.0178 µM (active) | GI50 [6]: 0.01 µM (active) | GI50 [7]: 0.0162 µM (active) | GI50 [8]: 0.00215 µM (active) | GI50 [9]: 0.0275 µM (active) | GI50 [10]: 0.0113 µM (active) | GI50 [11]: 0.0125 µM (active) | GI50 [12]: 0.0138 µM (active) | GI50 [13]: 0.0136 µM (active) | GI50 [14]: 0.0137 µM (active) | GI50 [15]: 0.336 µM (active) | GI50 [16]: 0.00124 µM (active) | GI50 [17]: 0.0071 µM (active) | GI50 [18]: 0.0138 µM (active) | GI50 [19]: 0.0131 µM (active)

COc1cc(Nc2nc3c(N)cc(C(F)(F)F)cc3nc2-c2ccccc2)cc(OC)c1OC
GI50 [1]: 24.3 µM (inactive) | GI50 [2]: 99.3 µM (inactive) | GI50 [3]: 37.9 µM (inactive) | GI50 [4]: > 94.6 µM | GI50 [5]: > 92.5 µM (inactive) | GI50 [6]: 22.3 µM (inactive) | GI50 [7]: 55.3 µM (inactive) | GI50 [8]: 72.8 µM (inactive) | GI50 [9]: 66.2 µM (inactive) | GI50 [20]: > 80.7 µM (inactive) | GI50 [10]: 57.1 µM (inactive) | GI50 [11]: 33.4 µM (inactive) | GI50 [12]: 16.6 µM (inactive) | GI50 [13]: 28.1 µM (inactive) | GI50 [14]: 17 µM (inactive) | GI50 [15]: 29.2 µM (inactive) | GI50 [16]: 26.1 µM (inactive) | GI50 [17]: 63 µM (inactive) | GI50 [18]: 43.1 µM (inactive) | GI50 [19]: 19.1 µM (inactive)

COc1ccc(NC(=O)/C(=C/c2ccccc2)C(C)=O)cc1
GI50 [1]: 14.8 µM (inactive) | GI50 [2]: 19.1 µM (inactive) | GI50 [3]: 13.7 µM (inactive) | GI50 [4]: 13.2 µM | GI50 [5]: 13.3 µM (inactive) | GI50 [7]: 17.5 µM (inactive) | GI50 [8]: 12.4 µM (inactive) | GI50 [9]: 12.9 µM (inactive) | GI50 [10]: 16.3 µM (inactive) | GI50 [11]: 15.2 µM (inactive) | GI50 [12]: 14.2 µM (inactive) | GI50 [13]: 15.3 µM (inactive) | GI50 [14]: 7.11 µM (inactive) | GI50 [15]: 20.3 µM (inactive) | GI50 [16]: 15.2 µM (inactive) | GI50 [17]: 13.3 µM (inactive) | GI50 [18]: 7.89 µM (inactive) | GI50 [19]: 16.2 µM (inactive)

CC12CC(=O)NN=C1c1ccccc1C2 (stereo not drawn)
GI50 [1]: > 100 µM (inactive) | GI50 [2]: > 100 µM (inactive) | GI50 [3]: > 100 µM (inactive) | GI50 [4]: > 100 µM | GI50 [5]: > 100 µM (inactive) | GI50 [7]: > 100 µM (inactive) | GI50 [8]: > 100 µM (inactive) | GI50 [9]: > 100 µM (inactive) | GI50 [10]: > 100 µM (inactive) | GI50 [11]: > 100 µM (inactive) | GI50 [12]: > 100 µM (inactive) | GI50 [13]: > 100 µM (inactive) | GI50 [14]: > 100 µM (inactive) | GI50 [15]: > 100 µM (inactive) | GI50 [16]: > 100 µM (inactive) | GI50 [17]: > 100 µM (inactive) | GI50 [18]: > 100 µM (inactive) | GI50 [19]: > 100 µM (inactive)

CC1OC(OC2C(CO)OC(O[C@H]3CC[C@@]4(C)C(=CC[C@H]5[C@@H]6C[C@@H]7O[C@]8(CC[C@@H](C)CN8)[C@@H](C)[C@@H]7[C@@]6(C)CC[C@@H]54)C3)C(O)C2O)C(O)C(O)C1O (stereo partly drawn)
GI50 [1]: > 100 µM (inactive) | GI50 [2]: > 100 µM (inactive) | GI50 [3]: > 100 µM (inactive) | GI50 [4]: > 100 µM | GI50 [5]: > 100 µM (inactive) | GI50 [7]: > 100 µM (inactive) | GI50 [8]: > 100 µM (inactive) | GI50 [9]: > 100 µM (inactive) | GI50 [10]: > 100 µM (inactive) | GI50 [11]: > 100 µM (inactive) | GI50 [12]: > 100 µM (inactive) | GI50 [13]: > 100 µM (inactive) | GI50 [14]: 42.1 µM (inactive) | GI50 [15]: > 100 µM (inactive) | GI50 [16]: > 100 µM (inactive) | GI50 [17]: > 100 µM (inactive) | GI50 [18]: > 100 µM (inactive) | GI50 [19]: > 100 µM (inactive)

NC(=O)c1c(-c2ccccc2)c(-c2ccccc2)cc2c(=O)c3ccccc3[nH]c12
GI50 [1]: 8.53 µM (inactive) | GI50 [2]: 29 µM (inactive) | GI50 [3]: 19.9 µM (inactive) | GI50 [4]: 29.8 µM | GI50 [5]: 18.9 µM (inactive) | GI50 [7]: 22.1 µM (inactive) | GI50 [8]: 21.8 µM (inactive) | GI50 [9]: 33.2 µM (inactive) | GI50 [10]: 23.1 µM (inactive) | GI50 [11]: 39 µM (inactive) | GI50 [12]: 40.4 µM (inactive) | GI50 [13]: 17.5 µM (inactive) | GI50 [14]: 23.6 µM (inactive) | GI50 [15]: 18.5 µM (inactive) | GI50 [16]: 31.7 µM (inactive) | GI50 [17]: 40.6 µM (inactive) | GI50 [18]: 25.5 µM (inactive) | GI50 [19]: 18 µM (inactive)

O=[N+]([O-])c1ccc(C2=Nn3c(nnc3-c3ccccc3)SC2)o1
GI50 [1]: 20.8 µM (inactive) | GI50 [2]: 21.4 µM (inactive) | GI50 [3]: 20 µM (inactive) | GI50 [4]: 16.1 µM | GI50 [5]: 23.7 µM (inactive) | GI50 [7]: 21.8 µM (inactive) | GI50 [8]: 18 µM (inactive) | GI50 [9]: 17.6 µM (inactive) | GI50 [10]: 17.3 µM (inactive) | GI50 [11]: 20.2 µM (inactive) | GI50 [12]: 17.4 µM (inactive) | GI50 [13]: 18.8 µM (inactive) | GI50 [14]: 20.4 µM (inactive) | GI50 [15]: 19.6 µM (inactive) | GI50 [16]: 17.4 µM (inactive) | GI50 [17]: 20 µM (inactive) | GI50 [18]: 19.5 µM (inactive) | GI50 [19]: 19.7 µM (inactive)

CC1OC(n2cc(F)c(=O)[nH]c2=O)C=CC1O (stereo not drawn)
GI50 [1]: > 100 µM (inactive) | GI50 [2]: > 100 µM (inactive) | GI50 [3]: > 100 µM (inactive) | GI50 [4]: > 100 µM | GI50 [5]: > 100 µM (inactive) | GI50 [7]: > 100 µM (inactive) | GI50 [8]: > 100 µM (inactive) | GI50 [9]: > 100 µM (inactive) | GI50 [10]: > 100 µM (inactive) | GI50 [11]: > 100 µM (inactive) | GI50 [12]: > 100 µM (inactive) | GI50 [13]: > 100 µM (inactive) | GI50 [14]: > 100 µM (inactive) | GI50 [15]: > 100 µM (inactive) | GI50 [16]: > 100 µM (inactive) | GI50 [17]: > 100 µM (inactive) | GI50 [18]: > 100 µM (inactive) | GI50 [19]: > 100 µM (inactive)

CNC(=O)OCc1nc([S+](C)[O-])n(C)c1COC(=O)NC (stereo not drawn)
GI50 [1]: > 100 µM (inactive) | GI50 [2]: > 41.8 µM (inactive) | GI50 [3]: > 100 µM (inactive) | GI50 [4]: > 100 µM | GI50 [5]: > 100 µM (inactive) | GI50 [7]: > 50.4 µM (inactive) | GI50 [8]: > 100 µM (inactive) | GI50 [9]: > 29.1 µM (inactive) | GI50 [10]: > 100 µM (inactive) | GI50 [11]: > 100 µM (inactive) | GI50 [12]: > 100 µM (inactive) | GI50 [13]: > 100 µM (inactive) | GI50 [14]: > 100 µM (inactive) | GI50 [15]: > 100 µM (inactive) | GI50 [16]: > 100 µM (inactive) | GI50 [17]: > 100 µM (inactive) | GI50 [18]: > 49.1 µM (inactive) | GI50 [19]: > 100 µM (inactive)

NC(=O)c1c[se]c(C2OC(CO)C(O)C2O)n1 (stereo not drawn)
GI50 [1]: 2.44 µM (inactive) | GI50 [2]: 1.22 µM (inactive) | GI50 [3]: 3.58 µM (inactive) | GI50 [4]: 0.537 µM | GI50 [5]: 3.55 µM (inactive) | GI50 [6]: > 100 µM (inactive) | GI50 [7]: 4.98 µM (inactive) | GI50 [8]: 0.57 µM (active) | GI50 [9]: 1.63 µM (inactive) | GI50 [20]: 36.4 µM (inactive) | GI50 [10]: 0.74 µM (active) | GI50 [11]: 6.84 µM (inactive) | GI50 [12]: 2.39 µM (inactive) | GI50 [13]: 2.43 µM (inactive) | GI50 [14]: > 59 µM (inactive) | GI50 [15]: > 91.4 µM (inactive) | GI50 [16]: 0.953 µM (active) | GI50 [17]: > 100 µM (inactive) | GI50 [18]: 12.3 µM (inactive) | GI50 [19]: 8.91 µM (inactive)

C[N+]1(C)C[C@@H](O)C[C@@H]1C(=O)[O-] [BETONICINE]
GI50 [1]: > 100 µM (inactive) | GI50 [2]: > 100 µM (inactive) | GI50 [3]: > 100 µM (inactive) | GI50 [4]: > 100 µM | GI50 [5]: > 100 µM (inactive) | GI50 [7]: > 100 µM (inactive) | GI50 [8]: > 100 µM (inactive) | GI50 [9]: > 100 µM (inactive) | GI50 [10]: > 100 µM (inactive) | GI50 [11]: > 100 µM (inactive) | GI50 [12]: > 100 µM (inactive) | GI50 [13]: > 100 µM (inactive) | GI50 [14]: > 100 µM (inactive) | GI50 [15]: > 100 µM (inactive) | GI50 [16]: > 100 µM (inactive) | GI50 [17]: > 100 µM (inactive) | GI50 [18]: > 100 µM (inactive) | GI50 [19]: > 100 µM (inactive)
